What all share (assay): Fluorescence polarization solution binding
Conditions in all cases: Rhodamine B-labeled peptide, GST-SH2, Beacon 2000, read-out: Affinity (KD)

Experiment [1] deals with Rasa1_N SH2 domain (Homo sapiens, UniProt P20936).
Experiment [2] has as its target T1, Rasa1_C SH2 domain (Homo sapiens, UniProt P20936).
T1 sequence (P20936 351-441 limits assumed): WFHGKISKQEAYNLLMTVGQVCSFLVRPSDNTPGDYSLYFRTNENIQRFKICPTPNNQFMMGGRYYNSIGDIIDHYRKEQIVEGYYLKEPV

Experiment [3] addresses PI3K1_N SH2 domain (Homo sapiens, UniProt P27986). From the text: (§1) To verify the binding results obtained from addressable peptide arrays we employed an orthogonal method of determining SH2 interactions with peptide ligands. We measured the dissociation constants of 60 binary SH2-peptide pairs in solution by fluorescence polarization (Table 2, Additional file 2: Figures S3A-C).
(§2) Peptides were synthesized using FMOC-chemistry onto pre-loaded tenta-gel resins. Peptides were then labeled with Rhodamine B (Abbey Color) and then cleaved using trifluoroacetic acid. Peptides were lyophilized and then purified using a LC/MS (Agilent 2100). Dissociation constants were measured using the Beacon 2000 (Invitrogen) as previously described.
(§3) Binding Affinities determined by Fluorescence Polarization. Rhodamine B-labeled peptides were mixed with varying concentrations of GST-tagged SH2 domains. Fluorescence polarization measurements were read on a Beacon 2000 (Invitrogen). The curves were fit to a Michaelis-Menten equation to calculate the dissociation constant, KD. […] (C) Affinity measurements that fell below the 2X mean intensity and were considered array negative on the SPOT array.

The target of experiment [4] is PI3K1_C SH2 domain (Homo sapiens, UniProt P27986).
Text: as §1, §2, §3

The target of experiment [5] is T2, Ptpn11_N SH2 domain (Homo sapiens, UniProt Q06124).
T2 sequence (Q06124 6-102 limits assumed): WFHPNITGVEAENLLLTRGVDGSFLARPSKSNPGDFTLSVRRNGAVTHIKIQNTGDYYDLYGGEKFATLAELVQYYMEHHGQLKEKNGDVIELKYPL
Text: as §1, §2, §3

Experiment [6] has as its target Grb2 SH2 domain (Homo sapiens, UniProt P62993).
Text: as §1, §2, §3

The target in experiment [7] is CrkL SH2 domain (Homo sapiens, UniProt P46109).
Text: as §1, §2, §3

Experiment [8] has as its target Crk SH2 domain (Homo sapiens, UniProt P46108).
Text: as §1, §2, §3

The target of experiment [9] is Plcg2_C SH2 domain (Homo sapiens, UniProt P16885).
Text: as §1
(§4) As noted above, this study performs well in terms of reproducing the literature reported interactions between the 50 SH2 domains tested and the 13 proteins represented on the addressable arrays (Table 1). A handful of differences with literature-reported interactions must, by necessity, be reconciled. Our assumption is that a high-throughput (HTP) study such as this one should capture upwards of 85% of known (literature reported) interactions and that results that differ from low throughput studies described in the literature should be subject to further testing to identify the nature of the discrepancy and reveal any weakness in the HTP dataset. […] For instance, FGFR1 Y-766 (SNQEpYLDLSMP) is reported to bind to PLCγ1 in a pTyr dependant manner based on mutational analysis of FGFR1 [55, 56]. […] This may imply that either this is a binding event specific to PLCγ1 (and not PLCγ2), or that the interaction reported at the level of the full-length protein may be more complex, perhaps requiring secondary contact sites that are not available within the context of the short peptide used in the current study. […] We have made an effort to limit false negatives to those of lower affinity, and we are aware of no instance in our dataset of a sub-micromolar affinity interaction being scored as array-negative.
(§5) Peptides were synthesized using FMOC-chemistry onto pre-loaded tenta-gel resins. […] Dissociation constants were measured using the Beacon 2000 (Invitrogen) as previously described.
(§6) Binding Affinities determined by Fluorescence Polarization. […] Fluorescence polarization measurements were read on a Beacon 2000 (Invitrogen). […]

Experiment [10] concerns the target Shb SH2 domain (Homo sapiens, UniProt Q15464).
Text: as §1, §2, §3

The target of experiment [11] is Plcg2_N SH2 domain (Homo sapiens, UniProt P16885).
Text: as §1, §4, §5, §6

PI3K1_N SH2 domain, sequence (P27986 333-428 limits assumed): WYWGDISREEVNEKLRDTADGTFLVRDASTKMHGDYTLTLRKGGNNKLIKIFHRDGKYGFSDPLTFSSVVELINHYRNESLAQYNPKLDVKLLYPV
Plcg2_C SH2 domain, sequence (P16885 646-735 limits assumed): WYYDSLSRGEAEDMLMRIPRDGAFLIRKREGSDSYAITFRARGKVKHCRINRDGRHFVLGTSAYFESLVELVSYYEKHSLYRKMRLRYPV
PI3K1_C SH2 domain, sequence (P27986 624-718 limits assumed): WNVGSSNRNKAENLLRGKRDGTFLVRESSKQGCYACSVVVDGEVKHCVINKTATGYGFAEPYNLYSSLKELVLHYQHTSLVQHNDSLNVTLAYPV
Crk SH2 domain, sequence (P46108 13-118 limits assumed): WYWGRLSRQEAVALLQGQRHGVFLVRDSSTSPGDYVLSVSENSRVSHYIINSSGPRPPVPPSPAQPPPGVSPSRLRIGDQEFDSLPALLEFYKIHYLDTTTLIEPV
CrkL SH2 domain, sequence (P46109 14-102 limits assumed): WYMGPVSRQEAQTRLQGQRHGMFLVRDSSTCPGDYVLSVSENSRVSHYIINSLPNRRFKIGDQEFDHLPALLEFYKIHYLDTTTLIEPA
Plcg2_N SH2 domain, sequence (P16885 532-635 limits assumed): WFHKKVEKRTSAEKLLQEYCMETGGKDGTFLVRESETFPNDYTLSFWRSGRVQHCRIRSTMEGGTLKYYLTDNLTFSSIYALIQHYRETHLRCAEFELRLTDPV
Rasa1_N SH2 domain, sequence (P20936 181-272 limits assumed): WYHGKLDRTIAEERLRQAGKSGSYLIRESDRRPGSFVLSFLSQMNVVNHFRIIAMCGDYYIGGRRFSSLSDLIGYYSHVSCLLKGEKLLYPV
Shb SH2 domain, sequence (Q15464 410-504 limits assumed): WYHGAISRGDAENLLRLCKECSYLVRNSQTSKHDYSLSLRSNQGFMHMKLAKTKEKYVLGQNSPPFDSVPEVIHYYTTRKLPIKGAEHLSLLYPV
Grb2 SH2 domain, sequence (P62993 60-152 limits assumed): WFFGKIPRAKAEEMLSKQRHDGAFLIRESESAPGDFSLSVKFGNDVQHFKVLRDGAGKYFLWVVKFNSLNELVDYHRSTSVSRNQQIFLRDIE

Take `CC(C)C[C@H](NC(=O)[C@H](CCC(=O)O)NC(=O)[C@H](Cc1ccc(OP(=O)(O)O)cc1)NC(=O)CNC(=O)[C@H](CCC(=O)O)NC(=O)[C@H](CCC(=O)O)NC(=O)[C@@H](N)CCCCN)C(=O)N1CCC[C@H]1C(=O)N[C@@H](Cc1ccc(O)cc1)C(=O)N[C@@H](CC(N)=O)C(=O)N1CCC[C@H]1C(=O)O` [KEEGpYELPYNP]: the Kd in experiment [1] was 410 nM; in [2], 1390 nM; in experiment [3], 1850 nM; in [4] it was 13 µM; in experiment [5], > 50 µM.

For `CC[C@H](C)[C@H](NC(=O)[C@H](Cc1ccc(OP(=O)(O)O)cc1)NC(=O)[C@H](CC(N)=O)NC(=O)[C@H](CC(C)C)NC(=O)CNC(=O)[C@@H](N)CC(N)=O)C(=O)N[C@@H](CC(=O)O)C(=O)N[C@@H](CC(C)C)C(=O)N[C@@H](CC(=O)O)C(=O)N[C@@H](CC(C)C)C(=O)N[C@H](C(=O)O)C(C)C` [NGLNpYIDLDLV], the values for the dissociation constant (Kd) in experiment [3], in experiment [6] and in experiment [7] were 15000 nM, > 50 µM and > 50 µM, respectively.

`CC[C@H](C)[C@H](NC(=O)[C@H](CC(N)=O)NC(=O)[C@@H](NC(=O)[C@H](Cc1ccc(OP(=O)(O)O)cc1)NC(=O)[C@H](CCC(=O)O)NC(=O)CNC(=O)[C@@H]1CCCN1C(=O)[C@@H](N)CO)C(C)C)C(=O)N[C@@H](CCC(=O)O)C(=O)N[C@@H](Cc1ccccc1)C(=O)NCC(=O)O` [SPGEpYVNIEFG]: the dissociation constant Kd in experiment [3] was 2680 nM; in [8], > 20 µM; in [5] it was 2.08 µM; in experiment [9], 2.92 µM.

Consider `CC(C)C[C@H](NC(=O)[C@H](CC(=O)O)NC(=O)[C@H](CC(C)C)NC(=O)[C@H](Cc1ccc(OP(=O)(O)O)cc1)NC(=O)[C@H](CCC(=O)O)NC(=O)[C@H](CC(=O)O)NC(=O)[C@@H](NC(=O)[C@@H](N)CO)[C@@H](C)O)C(=O)N[C@@H](CO)C(=O)N[C@@H](C)C(=O)N1CCC[C@H]1C(=O)O` [STDEpYLDLSAP], for which the equilibrium dissociation constant (Kd) is > 17000 nM in [2]; > 50 µM in experiment [10]; 2.14 µM in experiment [4]; 25 µM in [5]; > 50 µM in experiment [11]; 7.49 µM in experiment [9].
